Earlier results as cited in patent publication US20250302767A1, “TREATMENT OF CANCER AND AUTOIMMUNE DISORDERS USING NANO POLYMERS OF HISTONE DEACETYLASE INHIBITORS” (University of Virginia Patent Foundation, priority 2021, published 2025).

Assays:
PTCL = details: patients with PTCL, single agent, cited from earlier work; for Outcomes: ORR: pivotal trial cited per drug (romidepsin: trial (6) Coiffier et al., 2014); for Outcomes: CR / Outcomes: DOR: pivotal trial cited per drug (romidepsin: trial (6))
ALCL = details: patients with ALCL, pivotal trials (3, 4); cited from earlier work

O=C(/C=C/c1cccc(S(=O)(=O)Nc2ccccc2)c1)NO [Belinostat]
Outcomes: ORR (PTCL): 26% | Outcomes: CR (PTCL): 11% | Outcomes: DOR (PTCL): 13.6 months

Nc1cc(F)ccc1NC(=O)c1ccc(CNC(=O)/C=C/c2cccnc2)cc1 [Chidamide, N-(2-Amino-4-fluorophenyl)-4-[[[(E)-3-pyridin-3-ylprop-2-enoyl]amino]methyl]benzamide]
Outcomes: ORR (PTCL): 28% | Outcomes: CR (PTCL): 14% | Outcomes: DOR (PTCL): 9.9 months

C#CCC(Cc1cnc2nc(N)nc(N)c2n1)c1ccc(C(=O)N[C@@H](CCC(=O)O)C(=O)O)cc1 (stereo partly drawn) [Pralatrexate]
Outcomes: ORR (PTCL): 29% | Outcomes: CR (PTCL): 11% | Outcomes: DOR (PTCL): 10.1 months

Brentuximab vedotin
Outcomes: CR (ALCL): 57% | Outcomes: DOR (ALCL): 13.2 months | Outcomes: ORR (ALCL): 86%
